The term IC50 denotes the concentration that inhibits the measured activity by half.

Data on four molecules can be found in PMC7142633, “Impact of B-Ring Substitution and Acylation with Hydroxy Cinnamic Acids on the Inhibition of Porcine α-Amylase by Anthocyanin-3-Glycosides” (Foods, 2020).

For assay [1], the target named is T1, α-amylase from porcine pancreas (Sus scrofa, UniProt P00690).
T1 construct: A saline suspension of α-amylase from porcine pancreas; purchased Sigma Aldrich (Steinheim, Germany) Lot #SLBN9170V (catalogue number not given); host or cells: porcine pancreas (tissue-derived)
T1 sequence (P00690 16-511): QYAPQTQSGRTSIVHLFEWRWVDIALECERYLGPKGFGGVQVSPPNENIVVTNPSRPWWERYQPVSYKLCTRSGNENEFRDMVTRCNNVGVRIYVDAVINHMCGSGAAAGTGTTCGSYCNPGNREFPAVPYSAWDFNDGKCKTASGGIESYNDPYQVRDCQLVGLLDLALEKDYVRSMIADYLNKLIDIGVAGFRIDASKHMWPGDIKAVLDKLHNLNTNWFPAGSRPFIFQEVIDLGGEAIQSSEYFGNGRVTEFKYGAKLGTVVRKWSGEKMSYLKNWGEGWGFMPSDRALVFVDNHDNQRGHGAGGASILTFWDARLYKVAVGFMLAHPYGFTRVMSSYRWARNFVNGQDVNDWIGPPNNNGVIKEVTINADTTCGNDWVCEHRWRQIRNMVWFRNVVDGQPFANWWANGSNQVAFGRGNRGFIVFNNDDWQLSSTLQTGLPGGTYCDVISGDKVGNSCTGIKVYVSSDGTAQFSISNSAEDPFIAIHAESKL
As to the kind of experiment: α-amylase enzyme activity assay, GalG2CNP conversion, UV/Vis detection of CNP at 405 nm. The format is biochemical. Particulars: for conversion rate (v0) / inhibitory effect in UV/Vis assay: black carrot anthocyanins, 12.5−50 µM, artifact, simulated accelerated conversion; for Ki: global fit, 12.5, 25, 50 µM, UV/Vis artifact. As for the experimental part:
The enzyme activity assay, […], was established by Homoki and co-workers and already used by the authors to evaluate the inhibitory strength of different phenolic structures. To enable the evaluation of the result obtained in the present study compared to the non-anthocyanin phenolics investigated previously, the assay conditions were identical. In short, to 12 different GalG2CNP concentrations ([S] = 0−2000 µM) in MES^+ buffer, inhibitor [I] and 50 µL enzyme solution (c = 1.51 units/~100 pM, on the basis of supplier information) were mixed in a microtiter plate (Greiner BioOne, Frickenhausen, Germany; transparent, F-bottom). For blanks, the enzyme solution was substituted with MES^+ buffer. The final volume per well was 250 µL. To quantify the reaction product, a linear calibration with eight different CNP concentrations in the range of 0−35 µM was performed for each plate. Dilutions of the anthocyanin stock solutions (0.1% HCl) were equilibrated at pH 6.1 for one hour. Final inhibitor concentrations were limited due to its strong absorption at 405 nm to 12.5, 25, and 50 µM. For each anthocyanin structure, the assay was conducted on two to three different days with freshly prepared stocks of substrate, enzyme, and inhibitor.
In addition to the Michaelis Menten constant (Km) and the maximal conversion rate (vmax) values (Table S1), inhibition constants (Kic, Kiu) were calculated by fitting the data by two approaches: (i) According to the mixed inhibition equation (Equation (4)) or competitive inhibition equation (Equation (5)), applying an optimal global fit containing data from all inhibitor concentrations including the control ([I] = 0 µM); and (ii) by an independent fit according to the Michaelis Menten equation (Equation (6)), providing the apparent values Km^app and Vmax^app (Table S2) for each inhibitor concentration, which were then used to calculate the inhibition constants (Equations (7) and (8)). (4) v0= vmax/Km/[S] · (1+[I]/Kic)+(1+[I]/Kiu), (5) v0=vmax/Km/[S] · ( 1+[I]/Kic)+1, (6) v0=vmax · [S]/Km+[S], (7) Kic=vmax^app/Km^app · [I]/vmax/Km−vmax^app/Km^app, (8) Kiu=vmax^app · [I]/vmax− vmax^app.
The IC50 values of the different anthocyanins were derived from the inhibition constants for different substrate concentrations by the Cheng−Prusoff equation (Equation (9)). (9) IC50=(Km+[S])/Km/Kic+[S]/Kiu.
• KM: Michaelis Menten constant (µM) • vmax: Maximal conversion rate of the uninhibited reaction (µM/min) • v0: Observed conversion rate at given substrate and inhibitor concentration (µM/min) • [S]: Substrate concentration • [I]: Inhibitor concentration • Kic: Inhibitor constant, reflecting the competitive inhibition in the equation (µM) • Kiu: Inhibitor constant, reflecting the uncompetitive inhibition in the equation (µM) • vmax^app: Calculated maximal conversion rate, when the Michaelis Menten equation is used on an inhibited curve (µM/min) • Km^app: Calculated Michaelis Menten constant, when the Michaelis Menten equation is used on an inhibited curve (µM) • IC50: Half maximal inhibitory concentration (inhibitor concentration needed to achieve 50% inhibition; it is dependent on the substrate concentration) (µM)
For data analyses and calculations, Origin 2018b (OriginLab, software extension Enzyme Kinetics) was used. The Levenberg−Marquardt algorithm procedure was chosen for iteration. All assays were performed in two independent replicates at different dates. Values are expressed in arithmetic means ± average deviation (AD). The statistical significance and differences between groups were analyzed by one-way analysis of variance (ANOVA), followed by Tukey’s test. Differences were considered significant when p < 0.05. Data were processed using Microsoft Excel® (2010).

In assay [2] the target is T1, α-amylase from porcine pancreas. The assay can be described thus: Isothermal titration calorimetry, single injection, GalG2CNP conversion. The format is biochemical. To be noted: 100 µM inhibitor, 0.95 mM substrate, 37 °C. As for the experimental part:
To evaluate the inhibitory strength of 100 µM anthocyanin-3-glucosides and black carrot anthocyanins, GalG2CNP conversion to CNP was monitored by the released heat. According to the previous study, ITC measurements were carried out in a single injection experiment set-up on a MICROCALTM PEAQ-ITC calorimeter (S/N MAL1188053, Malvern Panalytical Almelo, Netherlands). Following an equilibration time of 10 min, 1 µL α-amylase (1 µM in 50 mM MES^+ buffer) was added to 0.95 mM of the substrate with or without 100 µM of the phenolic inhibitor in the cell (Vcell = 0.207 mL). The temperature was maintained at 37 °C and the sample was stirred at 750 rpm throughout. The feedback/gain mode was set to high. The resulting heat profile was transformed and the conversion rate was plotted against the substrate concentration [S] by an origin routine template provided by Malvern® for Origin version 7.
On the technique in general: Isothermal titration calorimetry measures the heat released or taken up as one component is titrated into another.

Another assay addresses human salivary α-amylase. Also on record: method as in PMID 26471548. To be noted: cited from earlier work.
Assay [3] concerns the target porcine pancreatic α-amylase. On the set-up: method as in doi:10.1016/j.jff.2015.11.042. Particulars: cited from earlier work.
Assay [4] has as its target T1, α-amylase from porcine pancreas. To be noted: cited from earlier work; for IC50: read-out: IC50 (Cheng−Prussoff, Equation (9)); for Kmapp / vmaxapp: Michaelis Menten fit.

Several values for one entry are separate records, joined by “and”; a condition that tells them apart may be missing. Equal values may be shown once. Entries after “also recorded” stand apart in the source; their conditions may differ. Read-outs that look alike come from different tables or passages of the source. Marks after values point to notes of the source that are not given here.

As to `OC[C@H]1O[C@@H](Oc2cc3c(O)cc(O)cc3[o+]c2-c2ccc(O)c(O)c2)[C@H](O[C@@H]2OC[C@@H](O)[C@H](O)[C@H]2O)[C@@H](O)[C@H]1O` [BC 2, cyanidin-3-xylosyl-galactoside], the “conversion rate (v0) / inhibitory effect in UV/Vis assay” value in assay [1] is recorded as “minor inhibitory effect”. Besides, the “inhibitory strength by ITC (thermogram, Michaelis Menten plot)” value (“inhibitory strength by ITC” for short) in assay [2] was “no significant difference”.

Take `COc1cc(/C=C/C(=O)OC[C@H]2O[C@@H](OC[C@H]3O[C@@H](Oc4cc5c(O)cc(O)cc5[o+]c4-c4ccc(O)c(O)c4)[C@H](O[C@@H]4OC[C@@H](O)[C@H](O)[C@H]4O)[C@@H](O)[C@H]3O)[C@H](O)[C@@H](O)[C@@H]2O)ccc1O` [BC 4]: in assay [1], the “conversion rate (v0) / inhibitory effect in UV/Vis assay” value is “inhibits best”. Also, in assay [1] (from fits and Lineweaver−Burk / Hanes plots), the inhibition type result is reported as “complete competitive inhibition; also recorded: predominantly competitive inhibition”. In addition, the Ki is ~20 µM and 20 µM in assay [1] (Competitive Inhibition (Equation (5)), rough estimation, read-out: Kic); 98 ± 139 µM in assay [1] (Mixed Inhibition (Equation (4)), read-out: Kiu); 23 ± 3 µM in assay [1] (Mixed Inhibition (Equation (4)), rough estimation, read-out: Kic). Moreover, the “inhibitory strength by ITC” value in assay [2] was “significantly stronger inhibition of BC 4 compared to the non-acylated BC 2 and Cyd-3-glc”.

In the case of `C[C@@H]1O[C@@H](OC[C@H]2O[C@@H](Oc3cc4c(O)cc(O)cc4[o+]c3-c3ccc(O)c(O)c3)[C@H](O)[C@@H](O)[C@@H]2O)[C@H](O)[C@H](O)[C@H]1O` [Cyd-3-rut], the results for the IC50 (on human salivary α-amylase; in assay [3]) were 200 ± 24 µM and 31 ± 7 µM, respectively.

Take `COc1cc(-c2[o+]c3cc(O)cc(O)c3cc2O[C@@H]2O[C@H](CO)[C@@H](O)[C@H](O)[C@H]2O)cc(OC)c1O` [Mlv-glc, malvidin-3-glucoside]: the “inhibitory strength by ITC” value in assay [2] is reported as “Mlv-3-glc > Cyd-3-glc > Dpd-3-glc~Peo-3-glc”. The Kic/Kiu in assay [4] ((i) global fit, Equation (4)) was 0.32 ± 0.07 ^a; in assay [4] ((ii) independent fit, Equations (7) and (8)), 0.58 ± 0.35 ^a. For the same molecule, the Ki was 44 ± 4 µM in assay [4] ((i) global fit, mixed inhibition Equation (4), read-out: Kic); 143 ± 44 µM in assay [4] ((i) global fit, mixed inhibition Equation (4), read-out: Kiu); 69 ± 17 µM in assay [4] ((ii) independent Michaelis Menten fit, Equation (7), read-out: Kic); 147 ± 50 µM in assay [4] ((ii) independent Michaelis Menten fit, Equation (8), read-out: Kiu); 74 ± 1 µM in assay [4] (from apparent values, inhibitor c 25 µM, read-out: Kic); 150 ± 14 µM in assay [4] (from apparent values, inhibitor c 25 µM, read-out: Kiu). Besides, the Ki in assay [4] (from apparent values, inhibitor c 50 µM, read-out: Kic) was 36 ± 6 µM; in assay [4] (from apparent values, inhibitor c 50 µM, read-out: Kiu), 159 ± 66 µM; in assay [4] (from apparent values, inhibitor c 12,5 µM, read-out: Kic), 139 µM; in assay [4] (from apparent values, inhibitor c 12,5 µM, read-out: Kiu), 84 µM; in assay [4] (mean over inhibitor c 12,5, 25, 50 µM (Supplementary 2), read-out: Kic mean ± SD), 83 ± 52 µM; in assay [4] (mean over inhibitor c 12,5, 25, 50 µM (Supplementary 2), read-out: Kiu mean ± SD) it was 131 ± 41 µM. The IC50 in assay [4] ((i) global fit, [S] 10 µM) was 46 ± 4 µM; in assay [4] ((i) global fit, [S] 100 µM), 58 ± 7 µM; in assay [4] ((i) global fit, [S] 10^3 µM), 106 ± 24 µM; in assay [4] ((i) global fit, [S] 10^6 µM), 143 ± 44 µM; in assay [4] ((ii) independent fit, [S] 10 µM), 71 ± 16 µM; in assay [4] ((ii) independent fit, [S] 100 µM) it was 83 ± 10 µM. The half-maximal inhibitory concentration (IC50) was 121 ± 21 µM in assay [4] ((ii) independent fit, [S] 10^3 µM); 147 ± 50 µM in assay [4] ((ii) independent fit, [S] 10^6 µM); 675 ± 73 µM on human salivary α-amylase. For the same molecule, the Kmapp in assay [4] (inhibitor c 25 µM) is on record as 216 ± 3 µM; in assay [4] (inhibitor c 50 µM) it was 337 ± 4 µM; in assay [4] (inhibitor c 12,5 µM) it was 194 ± 22 µM. Moreover, the vmaxapp was 0.67 ± 0.16 µM/min in assay [4] (inhibitor c 25 µM), 0.60 ± 0.20 µM/min in assay [4] (inhibitor c 50 µM) and 0.74 ± 0.24 µM/min in assay [4] (inhibitor c 12,5 µM). Also, in the assay on human salivary α-amylase, the inhibition type entry is on record as “competitive inhibition type”.
